The source of these data is US10336746B1, “RAD51 inhibitors” (Cyteir Therapeutics, Inc., priority 2017, dated 2019).

In general, EC50 refers to the concentration needed to bring the measured effect to its halfway point.

Where two headings read alike, the source gives them in different places.

Data set [1] concerns Daudi cell line (AID positive). Nature of the data set: Primary screening cell killing assay, Daudi cell line (AID positive). The format is cell-based. Particulars: Homo sapiens, 168 h, cell death on Day 7, Cell-Titer Glo. The procedure:
(§1) Primary screening was a phenotypic screen that utilized the synthetic lethal interaction between AID and RAD51 to identify compounds that were both potent and on target. AID expressing cells are dependent upon RAD51 for survival; inhibiting RAD51 in AID positive cells results in a cytotoxic effect.
The first step was to set up a cell killing assay in the Daudi cell line (AID positive). A 96 well u-bottom plate was prepared by writing the experiment number, plate number, date and initials in the top right corner of the plate lid. With a sterile 300 ml reservoir, and 25 ml serological pipette, evaporation buffer media was pipetted into reservoir in 25 ml increments. Using the liquid handler, 150 ul of evaporation buffer media was pipetted from reservoir into rows A and H, and Columns 1 and 12 of the 96 well u-bottom plate. Cell cultures were counted to obtain the density of cells per ml, and the culture viability. The cell density information was used to obtain 1,000,000 cells from culture using a 5 mL serological pipette into an epi tube. The cell density information from the culture was used to calculate the number of cells and volume of media needed for the assay to seed 1250 cells in 130 ul of media per available culture well in the 96 well u-bottom plate. Rows B through F were used for cells (50 wells in total), with row G left for an empty media control. The calculation was overestimated by 10 mL to account for the dead volume in the 300 ml reservoir. Once the media volume was calculated, the appropriate volume of media was pipetted in 25 mL increments into the 250 mL bottle using a 25 mL serological pipette. The 250 ml bottle was capped tightly, and placed into a 37° C. water bath for 2 minutes. While the culture media was warming, 10 mL of fresh media was pipetted from the 500 mL culture media bottle into a sterile 25 mL reservoir. Using the Eppendorf multichannel pipette, 130 ul of media was pipetted from the 25 mL reservoir into row G of the 96 well u-bottom plate. Once the 250 mL bottle of media was warmed, the volume of culture needed was pipetted into the bottle, and mixed gently with a 25 mL serological pipette as to not create bubbles, and then the contents of the bottle were pipetted into a new 300 mL reservoir. Using the liquid handler, 130 ul of culture was pipetted from the 300 mL reservoir into rows B through F of the 96 well u-bottom plate. Once the culture was added, the plate was placed into a 37° C. incubator until the compound master plate was prepared for use.
Two 96 well u-bottom plates were prepared by writing the master plate name in the upper right corner of the plate lid. Labeling one DMSO master and the other Media Master. The compounds of interest were obtained from the laboratory freezer, and placed into a 25 well storage box with a lid, and set the box aside. The compounds were vortexed after thawing but before use. Using an automatic multichannel pipette, 20 ul of 100% DMSO was pipetted into wells B3-B11 through G3-G11 of the DMSO master plate. For each compound on the master plate, 50 ul of the compound were pipetted in the appropriate well of row 2 (reference plate map to determine appropriate well). A serial dilution was prepared beginning by aspirating 20 ul from row 2 and mixing with row 3, repeating until row 11 was reached. Using the liquid handler, 194 ul of Daudi media was dispensed into wells B2-B11 through G2-G11 of the Media master plate. Using the liquid handler, 6 ul from the DMSO master plate was aspirated and dispensed into the media master plate, mixing 100 ul twice.
Compounds from master plate were then added to the culture plate. The culture plates were removed from the incubator, and set inside the biosafety cabinet. Using a liquid handler, 20 ul from wells B2 to B11 through G2 to G11 of master plate were aspirated, and dispensed into wells B2 to B11 through G2 to G11 of culture plate. This set was continued with each culture plate. […]

The subject of data set [2] is WI-38 cells (AID negative). Description: Primary screening cell killing assay repeated in WI-38 cells (AID negative). Format: cell-based. The settings on record: Homo sapiens, 168 h, cell death on Day 7, Cell-Titer Glo. As to the method:
as §1
Percent cell death and EC50 values were calculated by comparing the cell viability of the compound treated wells to the non-treated wells. Normalized RLU values were obtained by subtracting the media well values from each of the wells in the same column, and then dividing that value by the DMSO treated cells values. The percent kill was then calculated by subtracting the normalized RLU value from 1 and multiplying by 100. The average normalized percent kill value and standard error of the mean was then calculated. The kill values were then inputted into Prism with the corresponding standard errors. In Prism a non-linear regression line was plotted with the data points using a semi-log scale, and the EC50 value was calculated.

Data set [3] is described as follows: Bi-directional Caco-2 permeability. Format: in vitro ADME. Particulars: human; for efflux ratio at 90 min: Caco-2, read-out: BA/AB Ratio; for Papp A→B at 90 min: Caco-2, apical to basolateral, read-out: AB Papp (cm/sec × 10^6); for Papp A→B at 90 min / Papp B→A at 90 min: 37 C, up to 90 minutes; for Papp B→A at 90 min: Caco-2, basolateral to apical, read-out: BA Papp (cm/sec × 10^6). As to the method: Bi-directional Caco-2 permeability was assayed. Caco-2 cells were seeded onto permeable polycarbonate supports and allowed to differentiate for about 3 weeks prior to being used in the assays. The cells were then exposed to the compounds from either the apical or basolateral sides and incubated at 37 C for up to 90 minutes under light agitation. Compound transport was then measured using LC/MS/MS analysis at 30, 60, and 90 minutes.

Setting [4] is: Caco-2, Caco-2, AB direction, read-out: AB Recovery %.
The mark [5] stands for this setting: Caco-2, Caco-2, BA direction, read-out: BA Recovery %.

`CC(C)OC(=O)NC1CCC(c2ncc(-c3ccc(NC(=O)O[C@H](C)c4ccccc4)cc3S(=O)(=O)NC(C)(C)C)s2)CC1` (stereo partly drawn) [Ex. 43, (R)-1-phenylethyl (3-(N-(tert-butyl)sulfamoyl)-4-(2-((1r,4R)-4-((isopropoxycarbonyl)amino)cyclohexyl)thiazol-5-yl)phenyl)carbamate]: the EC50 is 100 to 1000 nM in data set [1] and over 1000 nM in data set [2].

Turning to `CC(C)OC(=O)N[C@H]1CC[C@H](c2ncc(-c3ccc(NC(=O)OC[C@@H]4CCCN4C)cc3S(=O)(=O)NC(C)(C)C)s2)CC1` [Ex. 35, isopropyl ((1S,4r)-4-(5-(2-(N-(tert-butyl)sulfamoyl)-4-(((((S)-1-methylpyrrolidin-2-yl)methoxy)carbonyl)amino)phenyl)thiazol-2-yl)cyclohexyl)carbamate], the EC50 in data set [1] was in the range of 100 to 1000 nM. The recovery at 90 min in data set [3] (setting [4]) is 98.8%. Further, the recovery at 90 min in data set [3] (setting [5]) was 108%. In addition, in data set [3], the efflux ratio at 90 min was determined as 99.1, the Papp A→B at 90 min came to 0.4 ×10⁻⁶ cm/s and the Papp B→A at 90 min stood at 41 ×10⁻⁶ cm/s.

Turning to `CC(C)OC(=O)NC12CCC(c3ncc(-c4ccc(NC(=O)N[C@H](C)c5ccccc5)cc4S(=O)(=O)NC(C)(C)C)s3)(CC1)CC2` [Ex. 14, isopropyl (R)-(4-(5-(2-(N-(tert-butyl)sulfamoyl)-4-(3-(1-phenylethyl)ureido)phenyl)thiazol-2-yl)bicyclo[2.2.2]octan-1-yl)carbamate], the EC50 was at most 100 nM in data set [1] and over 1000 nM in data set [2].

`CC(C)OC(=O)Nc1ccc(-c2cnc([C@H]3CC[C@H](NC(=O)OC(C)(C)C)CC3)s2)c(S(=O)(=O)NC(C)(C)C)c1` [Ex. 44, trans-isopropyl N-[4-[2-[4-(tert-butoxycarbonylamino)cyclohexyl]thiazol-5-yl]-3-(tert-butylsulfamoyl)phenyl]carbamate] yielded an EC50 in data set [1] of over 1000 nM. The recovery at 90 min in data set [3] (setting [4]) was 36.2%. In addition, the recovery at 90 min in data set [3] (setting [5]) worked out at 69.4%. Besides, in data set [3], the efflux ratio at 90 min is 1.3, the Papp A→B at 90 min is 3.2 ×10⁻⁶ cm/s and the Papp B→A at 90 min turned out to be 4.2 ×10⁻⁶ cm/s.

In the case of `CC(C)(C)NS(=O)(=O)c1cc(NC(=O)NCc2ccccn2)ccc1-c1cnc(C2CCC(NC(=O)OC(C)(C)C)CC2)s1` (stereo not shown) [Ex. 45, tert-butyl ((1r,4r)-4-(5-(2-(N-(tert-butyl)sulfamoyl)-4-(3-(pyridin-2-ylmethyl)ureido)phenyl)thiazol-2-yl)cyclohexyl)carbamate], the EC50 in data set [1] is at most 100 nM. The recovery at 90 min in data set [3] (setting [4]) turned out to be 73.6%. Moreover, the recovery at 90 min in data set [3] (setting [5]) was 84.4%. In data set [3], the efflux ratio at 90 min was 1.4, the Papp A→B at 90 min was 7.6 ×10⁻⁶ cm/s and the Papp B→A at 90 min was determined as 10.8 ×10⁻⁶ cm/s.

`CC(C)OC(=O)Nc1ccc(-c2cnc([C@H]3CC[C@H](NC(=O)OC4CCCC4)CC3)s2)c(S(=O)(=O)NC(C)(C)C)c1` [Ex. 7, trans-isopropyl N-[3-(tert-butylsulfamoyl)-4-[2-[4-(cyclopentoxycarbonylamino)cyclohexyl]thiazol-5-yl]phenyl]carbamate] came in with an EC50 in data set [1] of 100 to 1000 nM. For the same molecule, the recovery at 90 min in data set [3] (setting [4]) was 55.9%. In addition, in data set [3] (setting [5]), the recovery at 90 min worked out at 92%. Further, in data set [3], the efflux ratio at 90 min came out at 1.2, the Papp A→B at 90 min stood at 1.7 ×10⁻⁶ cm/s and the Papp B→A at 90 min was found to be 2.1 ×10⁻⁶ cm/s.

Consider `CC(C)OC(=O)Nc1ccc(-c2cnc([C@@H]3CC[C@@H](NC(=O)OC(C)C)CN3)s2)c(S(=O)(=O)NC(C)(C)C)c1` (relative stereo) [Ex. 63, trans-isopropyl N-[6-[5-[2-(tert-butylsulfamoyl)-4-(isopropoxycarbonylamino)phenyl]thiazol-2-yl]-3-piperidyl]carbamate], for which, in data set [1], the EC50 lay within 100 to 1000 nM. Further, the recovery at 90 min in data set [3] (setting [4]) came to 83.6%. The recovery at 90 min in data set [3] (setting [5]) turned out to be 90%. Besides, in data set [3], the efflux ratio at 90 min is 2.5, the Papp A→B at 90 min is 10.5 ×10⁻⁶ cm/s and the Papp B→A at 90 min amounted to 26.7 ×10⁻⁶ cm/s.

In turn, `CC(C)NC(=O)O[C@H]1CC[C@H](c2ncc(-c3ccc(NC(=O)OC(C)C)cc3S(=O)(=O)NC(C)(C)C)s2)CC1` [Ex. 20, trans-isopropyl N-[3-(tert-butylsulfamoyl)-4-[2-[4-(isopropylcarbamoyloxy)cyclohexyl]thiazol-5-yl]phenyl]carbamate] came in with an EC50 in data set [1] of over 1000 nM. In addition, the recovery at 90 min in data set [3] (setting [4]) came to 44.8%. Moreover, the recovery at 90 min in data set [3] (setting [5]) turned out to be 96.6%. Besides, in data set [3], the efflux ratio at 90 min is 1.1, the Papp A→B at 90 min is 9.4 ×10⁻⁶ cm/s and the Papp B→A at 90 min was 10.4 ×10⁻⁶ cm/s.

For `CC(C)NC(=O)O[C@H]1CC[C@H](c2ncc(-c3ccc(NC(=O)NCc4ccccc4)cc3S(=O)(=O)NC(C)(C)C)s2)CC1` [Ex. 21, (1r,4r)-4-(5-(4-(3-benzylureido)-2-(N-(tert-butyl)sulfamoyl)phenyl)thiazol-2-yl)cyclohexyl isopropylcarbamate], the 50% effective concentration (EC50) in data set [1] is at most 100 nM. Moreover, in data set [3] (setting [4]), the recovery at 90 min is 58.6%. Further, the recovery at 90 min in data set [3] (setting [5]) is 78.3%. Also, in data set [3], the efflux ratio at 90 min is 3, the Papp A→B at 90 min turned out to be 3.6 ×10⁻⁶ cm/s and the Papp B→A at 90 min was 10.7 ×10⁻⁶ cm/s.

In data set [1], `CC(C)OC(=O)Nc1ccc(-c2cnc(N3CCN(C(=O)OC(C)C)CC3)s2)c(S(=O)(=O)NC(C)(C)C)c1` [Ex. 5, isopropyl 4-[5-[2-(tert-butylsulfamoyl)-4-(isopropoxycarbonylamino)phenyl]thiazol-2-yl]piperazine-1-carboxylate] showed an EC50 of over 1000 nM. For the same molecule, the recovery at 90 min in data set [3] (setting [4]) came to 34.7%. Further, in data set [3] (setting [5]), the recovery at 90 min was 80.8%. In addition, in data set [3], the efflux ratio at 90 min amounted to 0.4, the Papp A→B at 90 min was found to be 5.9 ×10⁻⁶ cm/s and the Papp B→A at 90 min is 2.2 ×10⁻⁶ cm/s.

As to `CC(C)OC(=O)N[C@H]1CC[C@H](c2ncc(-c3ccc(NC(=O)OC[C@H]4CCCN4C)cc3S(=O)(=O)NC(C)(C)C)s2)CC1` [Ex. 34, isopropyl ((1R,4r)-4-(5-(2-(N-(tert-butyl)sulfamoyl)-4-(((((R)-1-methylpyrrolidin-2-yl)methoxy)carbonyl)amino)phenyl)thiazol-2-yl)cyclohexyl)carbamate], the EC50 in data set [1] lay within 100 to 1000 nM. Besides, the recovery at 90 min in data set [3] (setting [4]) turned out to be 98.2%. Besides, the recovery at 90 min in data set [3] (setting [5]) was found to be 96.8%. In data set [3], the efflux ratio at 90 min stood at 104, the Papp A→B at 90 min is 0.4 ×10⁻⁶ cm/s and the Papp B→A at 90 min was determined as 45.2 ×10⁻⁶ cm/s.

The molecule `CC(C)OC(=O)N[C@H]1CC[C@H](c2ncc(-c3ccc(NC(=O)NCc4ccccc4F)cc3S(=O)(=O)NC(C)(C)C)s2)CC1` [Ex. 28, isopropyl ((1r,4r)-4-(5-(2-(N-(tert-butyl)sulfamoyl)-4-(3-(2-fluorobenzyl)ureido)phenyl)thiazol-2-yl)cyclohexyl)carbamate] displayed an EC50 in data set [1] of at most 100 nM. Also, the recovery at 90 min in data set [3] (setting [4]) worked out at 66.9%. Moreover, the recovery at 90 min in data set [3] (setting [5]) is 81%. In addition, in data set [3], the efflux ratio at 90 min was determined as 1.7, the Papp A→B at 90 min was 1.9 ×10⁻⁶ cm/s and the Papp B→A at 90 min is 3.3 ×10⁻⁶ cm/s.
